ChEMBL document CHEMBL1150495, “Balanced angiotensin II receptor antagonists. I. The effects of biphenyl ortho-substitution on AT1/AT2 affinities” (Bioorg Med Chem Lett, 1994)
pIC50: −log10 of the molar value.

Columns and labels:
[1] = biological target: T1, Type-2 angiotensin II receptor (Rattus norvegicus, UniProt P35351); test: Displacement of [125I]- Ang II from angiotensin II AT2 receptor in rat adrenal cortical microsomes; parameters: species or system Microsome
T1 sequence (P35351 whole entry): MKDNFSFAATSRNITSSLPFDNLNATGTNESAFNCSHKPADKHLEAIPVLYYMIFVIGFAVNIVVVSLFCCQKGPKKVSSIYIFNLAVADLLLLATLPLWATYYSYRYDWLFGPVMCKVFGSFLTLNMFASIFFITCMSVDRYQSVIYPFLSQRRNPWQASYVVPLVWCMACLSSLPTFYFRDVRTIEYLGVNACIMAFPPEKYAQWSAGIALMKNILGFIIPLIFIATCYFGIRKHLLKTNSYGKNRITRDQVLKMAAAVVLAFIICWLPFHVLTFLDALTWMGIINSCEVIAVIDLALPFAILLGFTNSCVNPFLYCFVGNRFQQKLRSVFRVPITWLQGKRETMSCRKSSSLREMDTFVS

[2] = biological target: T2, Angiotensin II receptor (AT-1) type-1 (Rattus norvegicus, UniProt P29089+P25095); test: Displacement of [125I]- Ang II from angiotensin II AT1 receptor in rat adrenal cortical microsomes; parameters: species or system Microsome
T2 sequence (P29089 whole entry): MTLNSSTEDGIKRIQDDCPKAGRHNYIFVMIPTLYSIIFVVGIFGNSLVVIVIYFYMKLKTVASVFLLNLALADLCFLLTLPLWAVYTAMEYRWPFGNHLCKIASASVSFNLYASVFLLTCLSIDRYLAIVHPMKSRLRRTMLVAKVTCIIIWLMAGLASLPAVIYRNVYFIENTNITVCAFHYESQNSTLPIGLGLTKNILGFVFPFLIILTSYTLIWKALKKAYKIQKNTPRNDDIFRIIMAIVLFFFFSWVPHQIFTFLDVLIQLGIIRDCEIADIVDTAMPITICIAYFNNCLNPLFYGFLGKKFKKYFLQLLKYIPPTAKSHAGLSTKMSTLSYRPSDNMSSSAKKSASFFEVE
T2 sequence (P25095 whole entry): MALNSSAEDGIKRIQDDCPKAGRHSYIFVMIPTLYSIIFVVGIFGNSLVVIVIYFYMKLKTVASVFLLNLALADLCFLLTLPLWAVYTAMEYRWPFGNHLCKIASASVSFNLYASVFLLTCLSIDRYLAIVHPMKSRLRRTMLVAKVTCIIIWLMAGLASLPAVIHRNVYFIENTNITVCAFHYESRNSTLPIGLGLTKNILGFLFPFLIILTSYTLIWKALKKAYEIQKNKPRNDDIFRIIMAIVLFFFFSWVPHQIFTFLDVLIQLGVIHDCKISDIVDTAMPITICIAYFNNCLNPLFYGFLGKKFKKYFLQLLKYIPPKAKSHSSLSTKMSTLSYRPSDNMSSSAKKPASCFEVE

[3] = tested on: Rattus norvegicus; test: Reduction of blood pressure by 30 mmHg in renal hypertensive rats by intravenous administration; type: functional
[4] = tested on: Rattus norvegicus; test: Effective dose to lower blood pressure by 30 mmHg in renal hypertensive rats by peroral administration; type: functional; details: po
[5] = tested on: Rattus norvegicus; test: Duration required to lower blood pressure by 30 mmHg in renal hypertensive rats at a dose of 3.0 mg/kg; type: functional
[6] = biological target: Angiotensin II receptor (Homo sapiens) (UniProt P30556+P50052); test: Affinity towards angiotensin receptor was expressed as the ratio of Angiotensin II AT2 receptor over Angiotensin II AT1 receptor; type: protein assay
[7] = biological target: T1, Type-2 angiotensin II receptor; test: Compound was tested for the inhibition of angiotensin II AT2 receptor by displacement of [125I]- Ang II to rat adrenal cortical microsomes

| Compound | pIC50 [1] | IC50 [2] [nM] | Ratio [6] | pIC50 [7] | ED30 [3] [mg/kg] | ED30 [4] [mg/kg] | Duration [5] [h] |
| --- | --- | --- | --- | --- | --- | --- | --- |
| CCCCOC(=O)NS(=O)(=O)c1ccccc1-c1ccc(Cn2c(CCC)nc(CC)c2C(=O)OC)c(C)c1 | 8.00 | 3 |  |  | 0.15 | 0.56 |  |
| CCCc1nc(CC)c(C=O)n1Cc1ccc(-c2ccccc2-c2nn[nH]n2)cc1C | 6.00 | 40 |  |  | 1.4 |  |  |
| CCCCOC(=O)NS(=O)(=O)c1ccccc1-c1ccc(Cn2c(CCC)nc(CC)c2C(=O)OC)c(F)c1 | 8.40 | 0.6 |  |  | 0.11 | < 0.3 |  |
| CCCc1nc(CC)c(C=O)n1Cc1ccc(-c2ccccc2-c2nn[nH]n2)cc1F | 5.52 | 7 |  |  | 0.17 |  |  |
| CCCc1nc(CC)c(C=O)n1Cc1ccc(-c2ccccc2-c2nn[nH]n2)cc1Br | 6.15 | 20 |  |  | 1.05 |  |  |
| CCCCOC(=O)NS(=O)(=O)c1ccccc1-c1ccc(Cn2c(CCC)nc(CC)c2C(=O)OC)c(Br)c1 | 7.70 | 2 |  |  |  |  |  |
| CCCc1nc(C(F)(F)C(F)(F)F)c(C(=O)O)n1Cc1ccc(-c2ccccc2-c2nn[nH]n2)cc1 | < 5.00 | 3 |  |  |  |  |  |
| CCCc1nc(CC)c(C=O)n1Cc1ccc(-c2ccccc2-c2nn[nH]n2)cc1Cl | 6.30 | 10 |  |  | 0.87 |  |  |
| CCCc1nc(CC)c(C(=O)OC)n1Cc1ccc(-c2ccccc2S(=O)(=O)NC(=O)OCCC(C)C)cc1F | 9.00 |  | 1 |  | 0.12 | 0.67 | >24 |
| CCCCOC(=O)NS(=O)(=O)c1ccccc1-c1ccc(Cn2c(CCC)nc(CC)c2C(=O)OC)c([N+](=O)[O-])c1 | 7.70 | 7 |  |  |  |  |  |
| CCCc1nc(C(F)(F)C(F)(F)F)c(C(=O)O)n1Cc1ccc(-c2ccccc2-c2nn[nH]n2)cc1Br |  |  |  | 7.10 |  |  |  |

Further lines, with some results ahead:

| pIC50 [1] | IC50 [2] [nM] | Ratio [6] | pIC50 [7] | Compound | ED30 [3] [mg/kg] | ED30 [4] [mg/kg] | Duration [5] [h] |
| --- | --- | --- | --- | --- | --- | --- | --- |
| 8.00 | 2 |  |  | CCCCOC(=O)NS(=O)(=O)c1ccccc1-c1ccc(Cn2c(CCC)nc(CC)c2C=O)cc1 | 0.23 | 0.18 |  |
| 6.11 | 0.3 |  |  | CCCNC(=O)NS(=O)(=O)c1ccccc1-c1ccc(Cn2c(CCC)nc(SC)c2C(=O)O)cc1 |  |  |  |
| 8.70 | 0.7 |  |  | CCCCOC(=O)NS(=O)(=O)c1ccccc1-c1ccc(Cn2c(CCC)nc(CC)c2C=O)c(F)c1 | 0.13 | < 1 |  |
| 7.70 | 2 |  |  | CCCCOC(=O)NS(=O)(=O)c1ccccc1-c1ccc(Cn2c(CCC)nc(CC)c2C(C)=O)c(C)c1 | 0.24 | 0.55 |  |
| < 5.00 | 2 |  |  | CCCc1nc(CC)c(C=O)n1Cc1ccc(-c2ccccc2-c2nn[nH]n2)cc1 | 0.04 |  |  |
| 8.05 | 3 |  |  | CCCCOC(=O)NS(=O)(=O)c1ccccc1-c1ccc(Cn2c(CCC)nc(CC)c2C=O)c(C)c1 | 0.23 | 0.86 |  |
| 7.10 | 2 |  |  | CCCCOC(=O)NS(=O)(=O)c1ccccc1-c1ccc(Cn2c(CCC)nc(CC)c2C(C)=O)cc1 | 0.26 | 0.25 |  |
| 7.92 | 6 |  |  | CCCCOC(=O)NS(=O)(=O)c1ccccc1-c1ccc(Cn2c(CCC)nc(CC)c2C(C)=O)c(Cl)c1 | 0.11 | 0.96 |  |
| 6.30 | 2.4 |  |  | CCCc1nc(CC)c(C=O)n1Cc1ccc(-c2ccccc2S(=O)(=O)NC(=O)c2ccccc2)cc1 |  |  |  |
| 8.15 |  | 2.3 |  | CCCCOC(=O)NS(=O)(=O)c1ccccc1-c1ccc(Cn2c(CCC)nc(CC)c2C(=O)OC)c(Cl)c1 | 0.51 | 0.44 | >24 |
| 7.40 | 2 |  |  | CCCCOC(=O)NS(=O)(=O)c1ccccc1-c1ccc(Cn2c(CCC)nc(CC)c2C(=O)OC)cc1 |  |  |  |
| 8.52 |  | 3 |  | CCCCOC(=O)NS(=O)(=O)c1ccccc1-c1ccc(Cn2c(CCC)nc(CC)c2C(C)=O)c(F)c1 | 0.1 | 0.48 | >24 |
